Results: patent US11998516B2, “Methods and compositions for treating depression using cyclobenzaprine” (TONIX PHARMA HOLDINGS LIMITED, priority 2011, dated 2024)

Tests used:
[1] = test system: patients with fibromyalgia
Description: Hospital Anxiety and Depression Scale (HAD). The Hospital Anxiety and Depression Scale (HAD) is a widely used patient self-rated scale with 14 questions (7 “anxiety” and 7 “depression” questions) that ranges from 0-42.
The HAD Depression Subscale score was also analyzed.

fibromyalgia patients = settings: 10 to 40 mg over a 12-week period; cited from earlier work
[2] = 1-4 mg at bedtime, week 8, p=0.012
[3] = 1-4 mg at bedtime, week 8, p=0.017

## CN(C)CCC=C1c2ccccc2C=Cc2ccccc21 [cyclobenzaprine, 3-(5H-dibenzo[a,d]cyclohepten-5-ylidene)-N,N-dimethyl-1-propanamine]
[1]; 1-4 mg at bedtime, week 8
  HAD depression subscale at week 8: 4.9
[1]; [2]
  decrease (improvement) of HAD score, baseline to week 8: 3.3
  percent decrease of HAD score, baseline to week 8: 24.1%
[1]; [3]
  decrease (improvement) of HAD depression subscale, baseline to week 8: 1.4
  percent decrease of HAD depression subscale, baseline to week 8: 22.2%
[1]; 1-4 mg at bedtime, week 8, scale range 0-42
  HAD score at week 8: 10.4
[1]; fibromyalgia patients, before treatment
  HAD depression subscale at baseline: 6.3
[1]; fibromyalgia patients, before treatment, scale range 0-42
  HAD score at baseline: 13.7
[1]; week 8, VLD CBP vs placebo groups
  comparison of change from baseline in HAD scale versus placebo: did not reveal a significant effect
[1]; week 8, VLD CBP vs placebo groups, p=0.023
  comparison of change from baseline in HAD Depression subscore versus placebo: significant improvement
Fibromyalgia patients
  muscle tightness: reduction
  pain score: significantly improved
  quality of sleep: significantly improved
  total number of tender points: reduction
